Data as given in PubChem BioAssay AID1963958 (Molecular Pharmacology Branch, DTP, NCI, 2024).

Test system: MDA-MB-231 multicell spheroids, viability
Experiment: Anticancer human tumor MDA-MB-231 cell line growth inhibition [PI3K];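 note: spheroids exposed to agents for seven days before reading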;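 for viability, T/C: percent of vehicle control luminescence with DMSO treated spheroids as 100%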
Details: for IC50: curve of first compound; for viability, T/C: stronger effect = lower value
Summary of the method: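 Combination activity was assessed by viability in multicellular tumor spheroids carrying HUVEC and MSC components. Agents were tested with PI3K inhibitors from a Cmax-based top dose (or 10 microM) downward in half-log increments.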

[1] = second compound 0.0316 µM, first compound 0.0316 µM
[2] = second compound 0.0316 µM, first compound 0.1 µM
[3] = second compound 0.1 µM, first compound 0.0316 µM
[4] = second compound 0.1 µM, first compound 0.1 µM
[5] = second compound 0.316 µM, first compound 0.0316 µM
[6] = second compound 0.316 µM, first compound 0.1 µM
[7] = second compound 1 µM, first compound 0.0316 µM
[8] = second compound 1 µM, first compound 0.1 µM
[9] = second compound 3.16 µM, first compound 0.0316 µM
[10] = second compound 3.16 µM, first compound 0.1 µM
[11] = second compound 10 µM, first compound 0.0316 µM
[12] = second compound 10 µM, first compound 0.1 µM

Q: `C[C@@H](NC(=O)c1ncnc(N)c1Cl)c1ncc(C(=O)Nc2cc(C(F)(F)F)c(Cl)cn2)s1` + Cc1nc(NC(=O)N2CCCC2C(N)=O)sc1-c1ccnc(C(C)(C)C(F)(F)F)c1 was tested. Which IC50 (second compound 0.0316 µM) did it give?
A: The IC50 was over 10 µM.

Q: And the IC50 (second compound 0.1 µM)?
A: Its IC50 is 3.77 µM.

Q: And the IC50 (second compound 0.316 µM)?
A: Its IC50 is 0.86 µM.

Q: What about the IC50 (second compound 1 µM) of the same molecule?
A: The IC50 was 0.352 µM.

Q: And the IC50 (second compound 3.16 µM)?
A: The IC50 was 0.0947 µM.

Q: What about the IC50 (second compound 10 µM) of the same molecule?
A: Its IC50 is under 0.0316 µM.

Q: What about the viability, T/C [1] of the same molecule?
A: Its viability, T/C is 112%.

Q: What about the viability, T/C [2] of the same molecule?
A: Its viability, T/C is 77.8%.

Q: What about the viability, T/C (second compound 0.0316 µM, first compound 0.316 µM) of the same molecule?
A: The viability, T/C was 75%.

Q: What about the viability, T/C (second compound 0.0316 µM, first compound 1 µM) of the same molecule?
A: The viability, T/C was 72.1%.

Q: What about the viability, T/C (second compound 0.0316 µM, first compound 3.16 µM) of the same molecule?
A: Its viability, T/C is 61.3%.

Q: What about the viability, T/C (second compound 0.0316 µM, first compound 10 µM) of the same molecule?
A: The viability, T/C was 44.9%.

Q: What about the viability, T/C [3] of the same molecule?
A: Its viability, T/C is 99.4%.

Q: And the viability, T/C [4]?
A: Its viability, T/C is 77.2%.

Q: What about the viability, T/C (second compound 0.1 µM, first compound 0.316 µM) of the same molecule?
A: The viability, T/C was 61.8%.

Q: What about the viability, T/C (second compound 0.1 µM, first compound 1 µM) of the same molecule?
A: The viability, T/C was 67.7%.

Q: And the viability, T/C (second compound 0.1 µM, first compound 3.16 µM)?
A: The viability, T/C was 53.6%.

Q: And the viability, T/C (second compound 0.1 µM, first compound 10 µM)?
A: The viability, T/C was 41.3%.

Q: What about the viability, T/C [5] of the same molecule?
A: The viability, T/C was 81%.

Q: And the viability, T/C [6]?
A: Its viability, T/C is 63.7%.

Q: What about the viability, T/C (second compound 0.316 µM, first compound 0.316 µM) of the same molecule?
A: The viability, T/C was 53.9%.

Q: And the viability, T/C (second compound 0.316 µM, first compound 1 µM)?
A: Its viability, T/C is 50.2%.

Q: What about the viability, T/C (second compound 0.316 µM, first compound 3.16 µM) of the same molecule?
A: The viability, T/C was 49.9%.

Q: What about the viability, T/C (second compound 0.316 µM, first compound 10 µM) of the same molecule?
A: The viability, T/C was 37.1%.

Q: What about the viability, T/C [7] of the same molecule?
A: Its viability, T/C is 74.8%.

Q: What about the viability, T/C [8] of the same molecule?
A: The viability, T/C was 61%.

Q: And the viability, T/C (second compound 1 µM, first compound 0.316 µM)?
A: The viability, T/C was 47.1%.

Q: What about the viability, T/C (second compound 1 µM, first compound 1 µM) of the same molecule?
A: Its viability, T/C is 44.8%.

Q: What about the viability, T/C (second compound 1 µM, first compound 3.16 µM) of the same molecule?
A: The viability, T/C was 38.8%.

Q: What about the viability, T/C (second compound 1 µM, first compound 10 µM) of the same molecule?
A: The viability, T/C was 29.2%.

Q: What about the viability, T/C [9] of the same molecule?
A: The viability, T/C was 60.2%.

Q: And the viability, T/C [10]?
A: The viability, T/C was 48.7%.

Q: And the viability, T/C (second compound 3.16 µM, first compound 0.316 µM)?
A: Its viability, T/C is 40.6%.

Q: And the viability, T/C (second compound 3.16 µM, first compound 1 µM)?
A: The viability, T/C was 37.7%.

Q: What about the viability, T/C (second compound 3.16 µM, first compound 3.16 µM) of the same molecule?
A: The viability, T/C was 35.7%.

Q: And the viability, T/C (second compound 3.16 µM, first compound 10 µM)?
A: Its viability, T/C is 27.4%.

Q: And the viability, T/C [11]?
A: Its viability, T/C is 42.3%.

Q: What about the viability, T/C [12] of the same molecule?
A: The viability, T/C was 37.2%.

Q: And the viability, T/C (second compound 10 µM, first compound 0.316 µM)?
A: The viability, T/C was 32.3%.

Q: What about the viability, T/C (second compound 10 µM, first compound 1 µM) of the same molecule?
A: The viability, T/C was 30.9%.

Q: And the viability, T/C (second compound 10 µM, first compound 3.16 µM)?
A: Its viability, T/C is 24.6%.

Q: What about the viability, T/C (second compound 10 µM, first compound 10 µM) of the same molecule?
A: Its viability, T/C is 14.9%.

Q: Which IC50 (second compound 0.0316 µM) does the source give for `Cn1ncnc1[C@H]1c2n[nH]c(=O)c3cc(F)cc(c23)N[C@@H]1c1ccc(F)cc1` + Cc1nc(NC(=O)N2CCCC2C(N)=O)sc1-c1ccnc(C(C)(C)C(F)(F)F)c1 here?
A: The IC50 was over 0.1 µM.

Q: What about the IC50 (second compound 0.1 µM) of the same molecule?
A: The IC50 was over 0.1 µM.

Q: What about the IC50 (second compound 0.316 µM) of the same molecule?
A: Its IC50 is over 0.1 µM.

Q: What about the IC50 (second compound 1 µM) of the same molecule?
A: Its IC50 is over 0.1 µM.

Q: What about the IC50 (second compound 3.16 µM) of the same molecule?
A: The IC50 was over 0.1 µM.

Q: What about the IC50 (second compound 10 µM) of the same molecule?
A: The IC50 was over 0.1 µM.

Q: And the viability, T/C (second compound 0.0316 µM, first compound 0.000316 µM)?
A: Its viability, T/C is 89.3%.

Q: What about the viability, T/C (second compound 0.0316 µM, first compound 0.001 µM) of the same molecule?
A: The viability, T/C was 88.9%.

Q: And the viability, T/C (second compound 0.0316 µM, first compound 0.00316 µM)?
A: The viability, T/C was 86.8%.

Q: What about the viability, T/C (second compound 0.0316 µM, first compound 0.01 µM) of the same molecule?
A: Its viability, T/C is 83.4%.

Q: And the viability, T/C [1]?
A: The viability, T/C was 79%.

Q: What about the viability, T/C [2] of the same molecule?
A: The viability, T/C was 72.6%.

Q: What about the viability, T/C (second compound 0.1 µM, first compound 0.000316 µM) of the same molecule?
A: The viability, T/C was 88.4%.

Q: What about the viability, T/C (second compound 0.1 µM, first compound 0.001 µM) of the same molecule?
A: Its viability, T/C is 82%.

Q: What about the viability, T/C (second compound 0.1 µM, first compound 0.00316 µM) of the same molecule?
A: The viability, T/C was 77.5%.

Q: What about the viability, T/C (second compound 0.1 µM, first compound 0.01 µM) of the same molecule?
A: The viability, T/C was 68.7%.

Q: And the viability, T/C [3]?
A: The viability, T/C was 65%.

Q: What about the viability, T/C [4] of the same molecule?
A: Its viability, T/C is 63.2%.

Q: And the viability, T/C (second compound 0.316 µM, first compound 0.000316 µM)?
A: Its viability, T/C is 67.2%.

Q: What about the viability, T/C (second compound 0.316 µM, first compound 0.001 µM) of the same molecule?
A: Its viability, T/C is 75.2%.

Q: And the viability, T/C (second compound 0.316 µM, first compound 0.00316 µM)?
A: Its viability, T/C is 65.6%.

Q: What about the viability, T/C (second compound 0.316 µM, first compound 0.01 µM) of the same molecule?
A: The viability, T/C was 64.1%.

Q: And the viability, T/C [5]?
A: Its viability, T/C is 59.7%.

Q: And the viability, T/C [6]?
A: The viability, T/C was 53.5%.

Q: And the viability, T/C (second compound 1 µM, first compound 0.000316 µM)?
A: Its viability, T/C is 68.3%.

Q: What about the viability, T/C (second compound 1 µM, first compound 0.001 µM) of the same molecule?
A: The viability, T/C was 66%.

Q: What about the viability, T/C (second compound 1 µM, first compound 0.00316 µM) of the same molecule?
A: The viability, T/C was 65.1%.

Q: What about the viability, T/C (second compound 1 µM, first compound 0.01 µM) of the same molecule?
A: The viability, T/C was 60%.

Q: And the viability, T/C [7]?
A: The viability, T/C was 55.2%.

Q: And the viability, T/C [8]?
A: The viability, T/C was 49.7%.

Q: What about the viability, T/C (second compound 3.16 µM, first compound 0.000316 µM) of the same molecule?
A: Its viability, T/C is 64.5%.

Q: And the viability, T/C (second compound 3.16 µM, first compound 0.001 µM)?
A: The viability, T/C was 63.4%.

Q: And the viability, T/C (second compound 3.16 µM, first compound 0.00316 µM)?
A: Its viability, T/C is 64.5%.

Q: And the viability, T/C (second compound 3.16 µM, first compound 0.01 µM)?
A: Its viability, T/C is 54%.

Q: And the viability, T/C [9]?
A: The viability, T/C was 54.6%.

Q: What about the viability, T/C [10] of the same molecule?
A: Its viability, T/C is 50.4%.

Q: What about the viability, T/C (second compound 10 µM, first compound 0.000316 µM) of the same molecule?
A: The viability, T/C was 66%.

Q: And the viability, T/C (second compound 10 µM, first compound 0.001 µM)?
A: Its viability, T/C is 63.4%.

Q: And the viability, T/C (second compound 10 µM, first compound 0.00316 µM)?
A: Its viability, T/C is 56%.

Q: What about the viability, T/C (second compound 10 µM, first compound 0.01 µM) of the same molecule?
A: The viability, T/C was 59.8%.

Q: And the viability, T/C [11]?
A: Its viability, T/C is 54.4%.

Q: And the viability, T/C [12]?
A: The viability, T/C was 48.8%.
